Reference: ChEMBL document CHEMBL3046873, “Synthesis of antihyperglycemic, -glucosidase inhibitory, and DPPH free radical scavenging furanochalcones” (Med Chem Res, 2012)
Activity calls are given as the source filed them. The calls are words filed in the database; no cut-off is given here.

Columns and labels:
[1] = biological target: Lysosomal alpha-glucosidase (Rattus norvegicus) (UniProt Q6P7A9); test: Inhibition of rat intestinal alpha-glucosidase using para-nitrophenyl-alpha-D-glucopyranoside as substrate at 25 ug/ml incubated for 5 min prior to substrate addition measured after 5 min by spectrophotometric analysis
Chain of Lysosomal alpha-glucosidase (Rattus norvegicus) (Q6P7A9 whole entry): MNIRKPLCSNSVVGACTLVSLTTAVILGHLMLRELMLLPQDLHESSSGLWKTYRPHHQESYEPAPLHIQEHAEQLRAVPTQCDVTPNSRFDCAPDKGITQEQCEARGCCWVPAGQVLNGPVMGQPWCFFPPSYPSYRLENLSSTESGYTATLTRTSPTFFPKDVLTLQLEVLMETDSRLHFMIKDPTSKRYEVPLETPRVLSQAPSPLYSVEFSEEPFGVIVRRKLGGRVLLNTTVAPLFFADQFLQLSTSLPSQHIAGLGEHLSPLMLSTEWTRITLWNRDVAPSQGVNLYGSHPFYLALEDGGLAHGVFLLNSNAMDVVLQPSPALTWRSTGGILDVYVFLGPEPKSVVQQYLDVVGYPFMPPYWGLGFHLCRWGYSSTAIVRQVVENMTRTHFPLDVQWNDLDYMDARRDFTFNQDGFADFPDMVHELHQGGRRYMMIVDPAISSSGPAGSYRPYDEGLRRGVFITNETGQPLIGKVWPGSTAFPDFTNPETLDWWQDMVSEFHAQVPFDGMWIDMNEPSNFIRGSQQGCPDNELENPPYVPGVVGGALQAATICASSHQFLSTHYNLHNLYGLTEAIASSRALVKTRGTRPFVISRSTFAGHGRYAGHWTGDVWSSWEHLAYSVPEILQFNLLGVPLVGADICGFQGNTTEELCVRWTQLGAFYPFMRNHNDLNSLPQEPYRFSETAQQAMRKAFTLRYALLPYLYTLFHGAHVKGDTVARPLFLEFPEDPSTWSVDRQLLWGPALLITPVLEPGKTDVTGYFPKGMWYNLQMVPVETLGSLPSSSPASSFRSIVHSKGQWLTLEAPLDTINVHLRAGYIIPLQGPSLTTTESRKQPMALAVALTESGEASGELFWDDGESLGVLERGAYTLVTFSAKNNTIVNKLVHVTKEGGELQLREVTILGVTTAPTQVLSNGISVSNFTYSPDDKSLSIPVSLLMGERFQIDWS

[2] = tested on: Radical scavenging activity; test: Antioxidant activity assessed as DPPH free radical scavenging activity at 20 ug/ml after 30 min by spectrophotometric analysis; assay type: functional
[3] = tested on: Radical scavenging activity; test: Antioxidant activity assessed as concentration required for 50% DPPH free radical scavenging activity after 30 min by spectrophotometric analysis; assay type: functional
[4] = tested on: Rattus norvegicus; test: Antihyperglycemic activity in starch-induced post-parandial hyperglycemic Rattus norvegicus Wistar (rat) model assessed as decrease in plasma glucose level at 10 mg/kg, po administered via gastric intubation by glucose-oxidase test; assay type: functional, organism-based; parameters: dose 10 mg/kg; settings: TDE = time-dependent effect
[5] = tested on: Rattus norvegicus; test: Antihyperglycemic activity in starch-induced post-parandial hyperglycemic Rattus norvegicus Wistar (rat) model assessed as decrease in plasma AUC at 10 mg/kg, po administered via gastric intubation administered 15 min followed by starch challenge measured after 30 to 120 min by glucose-oxidase test; assay type: functional, organism-based; parameters: dose 10 mg/kg
[6] = tested on: Rattus norvegicus; test: Antihyperglycemic activity in starch-induced post-parandial hyperglycemic Rattus norvegicus Wistar (rat) model assessed as decrease in plasma AUC at 50 mg/kg, po administered via gastric intubation administered 15 min followed by starch challenge measured after 30 to 120 min by glucose-oxidase test; assay type: functional, organism-based; parameters: dose 50 mg/kg
[7] = tested on: Rattus norvegicus; test: Antihyperglycemic activity in starch-induced post-parandial hyperglycemic Rattus norvegicus Wistar (rat) model assessed as decrease in plasma glucose level at 50 mg/kg, po administered via gastric intubation by glucose-oxidase test; assay type: functional, organism-based; parameters: dose 50 mg/kg; settings: TDE = time-dependent effect

SMILES | inhibition [1] [%] | Activity [2] [%] | Activity [3] [µM] | further results
COc1ccc(/C=C/C(=O)c2cc3ccoc3cc2O)cc1 | 48.9 | – | – | –
COc1cc(/C=C/C(=O)c2cc3ccoc3cc2O)ccc1O | 52.8 | 42.1 | – | –
COc1ccc(/C=C/C(=O)c2cc3ccoc3cc2O)cc1OC | 89.3 | 8.78 | – | –
COc1cc(OC)c(OC)cc1/C=C/C(=O)c1cc2ccoc2cc1O | 68 | 17.1 | – | –
O=C(/C=C/c1ccccc1)c1cc2ccoc2cc1O | 67.6 | 9.91 | – | –
C[C@H]1O[C@H](O[C@H]2[C@H](O)[C@@H](O)[C@@H](O[C@H]3[C@H](O)[C@@H](O)C(O)O[C@@H]3CO)O[C@@H]2CO)[C@H](O)[C@@H](O)[C@@H]1N[C@H]1C=C(CO)[C@@H](O)[C@H](O)[C@H]1O (stereo not given in full) | – | – | – | Activity [4]: tde; Activity [5]: Active
Cc1c(C)c2c(c(C)c1O)CCC(C)(C(=O)O)O2 (stereo not given) | – | 99.5 | 4.8 | –
COc1ccc(/C=C/C(=O)c2ccc3occc3c2O)cc1OC | 89.5 | – | – | Activity [6]: Active; Activity [7]: tde
COc1ccc(/C=C/C(=O)c2ccc3occc3c2O)c(OC)c1OC | 67.3 | 7.3 | – | –
O=C(/C=C/c1ccc(O)c(O)c1)c1cc2ccoc2cc1O | 62.7 | 69.8 | 26.2 | –

Further lines, with some results ahead:

inhibition [1] [%] | SMILES | Activity [2] [%] | Activity [3] [µM] | further results
45 | COc1cc(/C=C/C(=O)c2ccc3occc3c2O)ccc1O | 54.2 | – | –
20.8 | O=C(/C=C/c1ccccc1)c1ccc2occc2c1O | 7.57 | – | –
65.7 | O=C(/C=C/c1ccc(O)cc1)c1ccc2occc2c1O | 75.8 | 17.8 | –
94.8 | COc1ccc(/C=C/C(=O)c2ccc3occc3c2O)cc1 | – | – | –
8.77 | O=C(/C=C/c1ccc(O)cc1)c1cc2ccoc2cc1O | 73.2 | 12 | –
61.5 | O=C(/C=C/c1ccc(O)c(O)c1)c1ccc2occc2c1O | 67.9 | 29.7 | –
